Data from patent US8952024B2, “Herbicidal pyrimidone derivatives” (E I du Pont de Nemours and Company, priority 2009, dated 2015).

Assays:
Experiment in all cases: Test D pre-/postemergence plant response
Type in all cases: in vivo
[1] = tested on: ragweed (common ragweed, Ambrosia elatior)
How it was run: (§1)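 Greenhouse assay: sown seeds in loam/sand received preemergence spray; simultaneously, emerged seedlings (1- to 4-leaf, 2–18 cm) got postemergence spray of the same surfactant-containing formulation. Rating at 14–21 days by visual comparison with controls, 0 = no effect to 100 = complete control.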

[2] = tested on: green foxtail (Setaria viridis)
How it was run: as §1

[3] = tested on: dayflower (Virginia (VA) dayflower, Commelina virginica)
How it was run: as §1

[4] = tested on: Surinam grass (Brachiaria decumbens)
How it was run: as §1

[5] = tested on: signalgrass (broadleaf signalgrass, Brachiaria platyphylla)
How it was run: as §1

[6] = tested on: morningglory (pitted morningglory, Ipomoea lacunosa)
How it was run: as §1

[7] = tested on: spanishneedles (Bidens bipinnata)
How it was run: as §1

[8] = tested on: johnsongrass (Sorghum halepense)
How it was run: as §1

[9] = tested on: purslane (common purslane, Portulaca oleracea)
How it was run: as §1

[10] = tested on: bluegrass (annual bluegrass, Poa annua)
How it was run: as §1

[11] = tested on: kochia (Kochia scoparia)
How it was run: as §1

[12] = tested on: mallow (common mallow, Malva sylvestris)
How it was run: as §1

[13] = tested on: itchgrass (Rottboellia cochinchinensis)
How it was run: as §1

[14] = tested on: barnyardgrass (Echinochloa crus-galli)
How it was run: as §1

[15] = tested on: large crabgrass (Digitaria sanguinalis)
How it was run: as §1

[16] = tested on: guineagrass (Panicum maximum)
How it was run: as §1

[17] = tested on: groundsel (common groundsel, Senecio vulgaris); details: Postemergence
How it was run: as §1

[18] = Postemergence, 31 g ai/ha, scale 0 to 100
[19] = Postemergence, 62 g ai/ha, scale 0 to 100 (0 no effect, 100 complete control)
[20] = Postemergence, 125 g ai/ha, scale 0 to 100 (0 no effect, 100 complete control)
[21] = Postemergence, 16 g ai/ha, scale 0 to 100
[22] = Preemergence, 16 g ai/ha, scale 0 to 100, 0 no effect, 100 complete control
[23] = Preemergence, 31 g ai/ha, scale 0 to 100 (0 no effect, 100 complete control)
[24] = Preemergence, 125 g ai/ha, scale 0 to 100
[25] = Preemergence, rate not given, scale 0 to 100, 0 no effect, 100 complete control
[26] = Preemergence, 62 g ai/ha, scale 0 to 100
[27] = Postemergence, 31 g ai/ha, scale 0 to 100 (0 no effect, 100 complete control)

COCCn1c(-c2ccccc2)ncc(C(=O)C2=C(O)CCCC2=O)c1=O [Compound 85]
Plant response rating, Ragweed [1, 18]: 80 | Plant response rating, Ragweed [1, 19]: 80 | Plant response rating, Ragweed [1, 20]: 100 | Plant response rating, Ragweed [1, 21]: 80 | Plant response rating, Ragweed [1, 22]: 90 | Plant response rating, Ragweed [1, 23]: 95 | Plant response rating, Ragweed [1, 24]: 100 | Plant response rating, Ragweed [1, 25]: 100 | Plant response rating, Foxtail, Green [2, 18]: 25 | Plant response rating, Foxtail, Green [2, 19]: 35 | Plant response rating, Foxtail, Green [2, 20]: 65 | Plant response rating, Foxtail, Green [2, 21]: 20 | Plant response rating, Foxtail, Green [2, 22]: 0 | Plant response rating, Foxtail, Green [2, 23]: 5 | Plant response rating, Foxtail, Green [2, 26]: 40 | Plant response rating, Foxtail, Green [2, 24]: 70 | Plant response rating, Dayflower, VA [3, 18]: 30 | Plant response rating, Dayflower, VA [3, 19]: 60 | Plant response rating, Dayflower, VA [3, 20]: 80 | Plant response rating, Dayflower, VA [3, 21]: 20 | Plant response rating, Dayflower, VA [3, 22]: 5 | Plant response rating, Dayflower, VA [3, 23]: 10 | Plant response rating, Dayflower, VA [3, 26]: 90 | Plant response rating, Dayflower, VA [3, 24]: 95 | Plant response rating, Surinam Grass [4, 18]: 75 | Plant response rating, Surinam Grass [4, 19]: 75 | Plant response rating, Surinam Grass [4, 20]: 85 | Plant response rating, Surinam Grass [4, 22]: 98 | Plant response rating, Surinam Grass [4, 23]: 100 | Plant response rating, Surinam Grass [4, 24]: 100 | Plant response rating, Signalgrass [5, 18]: 35 | Plant response rating, Signalgrass [5, 19]: 60 | Plant response rating, Signalgrass [5, 20]: 75 | Plant response rating, Signalgrass [5, 21]: 20 | Plant response rating, Signalgrass [5, 22]: 5 | Plant response rating, Signalgrass [5, 23]: 60 | Plant response rating, Signalgrass [5, 24]: 95 | Plant response rating, Morningglory [6, 18]: 70 | Plant response rating, Morningglory [6, 19]: 75 | Plant response rating, Morningglory [6, 20]: 90 | Plant response rating, Morningglory [6, 21]: 70 | Plant response rating, Morningglory [6, 23]: 70 | Plant response rating, Morningglory [6, 26]: 90 | Plant response rating, Morningglory [6, 24]: 100 | Plant response rating, Spanishneedles [7, 18]: 75 | Plant response rating, Spanishneedles [7, 19]: 90 | Plant response rating, Spanishneedles [7, 20]: 95 | Plant response rating, Spanishneedles [7, 21]: 75 | Plant response rating, Spanishneedles [7, 22]: 90 | Plant response rating, Spanishneedles [7, 23]: 98 | Plant response rating, Spanishneedles [7, 24]: 100 | Plant response rating, Spanishneedles [7, 25]: 98 | Plant response rating, Johnsongrass [8, 18]: 50 | Plant response rating, Johnsongrass [8, 19]: 80 | Plant response rating, Johnsongrass [8, 20]: 80 | Plant response rating, Johnsongrass [8, 21]: 35 | Plant response rating, Johnsongrass [8, 22]: 50 | Plant response rating, Johnsongrass [8, 23]: 65 | Plant response rating, Johnsongrass [8, 26]: 80 | Plant response rating, Johnsongrass [8, 24]: 95 | Plant response rating, Purslane [9, 18]: 80 | Plant response rating, Purslane [9, 19]: 90 | Plant response rating, Purslane [9, 20]: 90 | Plant response rating, Purslane [9, 21]: 75 | Plant response rating, Purslane [9, 22]: 80 | Plant response rating, Purslane [9, 23]: 100 | Plant response rating, Purslane [9, 26]: 100 | Plant response rating, Purslane [9, 24]: 100 | Plant response rating, Bluegrass [10, 27]: 0 | Plant response rating, Bluegrass [10, 19]: 5 | Plant response rating, Bluegrass [10, 20]: 5 | Plant response rating, Bluegrass [10, 21]: 0 | Plant response rating, Bluegrass [10, 22]: 0 | Plant response rating, Bluegrass [10, 23]: 0 | Plant response rating, Bluegrass [10, 26]: 0 | Plant response rating, Bluegrass [10, 24]: 15 | Plant response rating, Kochia [11, 18]: 10 | Plant response rating, Kochia [11, 19]: 20 | Plant response rating, Kochia [11, 20]: 60 | Plant response rating, Kochia [11, 21]: 0 | Plant response rating, Kochia [11, 22]: 5 | Plant response rating, Kochia [11, 23]: 20 | Plant response rating, Kochia [11, 26]: 75 | Plant response rating, Kochia [11, 24]: 95 | Plant response rating, Mallow [12, 18]: 65 | Plant response rating, Mallow [12, 19]: 70 | Plant response rating, Mallow [12, 20]: 75 | Plant response rating, Mallow [12, 21]: 60 | Plant response rating, Mallow [12, 22]: 80 | Plant response rating, Mallow [12, 26]: 95 | Plant response rating, Mallow [12, 24]: 98 | Plant response rating, Itchgrass [13, 18]: 35 | Plant response rating, Itchgrass [13, 19]: 65 | Plant response rating, Itchgrass [13, 20]: 70 | Plant response rating, Itchgrass [13, 21]: 30 | Plant response rating, Itchgrass [13, 22]: 10 | Plant response rating, Itchgrass [13, 23]: 15 | Plant response rating, Itchgrass [13, 26]: 35 | Plant response rating, Itchgrass [13, 24]: 50 | Plant response rating, Barnyardgrass [14, 27]: 50 | Plant response rating, Barnyardgrass [14, 19]: 65 | Plant response rating, Barnyardgrass [14, 20]: 70 | Plant response rating, Barnyardgrass [14, 21]: 30 | Plant response rating, Barnyardgrass [14, 22]: 60 | Plant response rating, Barnyardgrass [14, 23]: 75 | Plant response rating, Barnyardgrass [14, 26]: 95 | Plant response rating, Barnyardgrass [14, 24]: 98 | Plant response rating, Crabgrass, Large [15, 18]: 60 | Plant response rating, Crabgrass, Large [15, 19]: 75 | Plant response rating, Crabgrass, Large [15, 20]: 75 | Plant response rating, Crabgrass, Large [15, 21]: 60 | Plant response rating, Crabgrass, Large [15, 22]: 95 | Plant response rating, Crabgrass, Large [15, 23]: 98 | Plant response rating, Crabgrass, Large [15, 26]: 100 | Plant response rating, Crabgrass, Large [15, 24]: 100 | Plant response rating, Guineagrass [16, 18]: 20 | Plant response rating, Guineagrass [16, 19]: 35 | Plant response rating, Guineagrass [16, 20]: 60 | Plant response rating, Guineagrass [16, 21]: 10 | Plant response rating, Guineagrass [16, 22]: 0 | Plant response rating, Guineagrass [16, 23]: 10 | Plant response rating, Guineagrass [16, 26]: 70 | Plant response rating, Guineagrass [16, 24]: 75 | Plant response rating, Groundsel ([17]; 31 g ai/ha, scale 0 to 100): 100 | Plant response rating, Groundsel ([17]; 62 g ai/ha, scale 0 to 100 (0 no effect, 100 complete control)): 100 | Plant response rating, Groundsel ([17]; 125 g ai/ha, scale 0 to 100 (0 no effect, 100 complete control)): 100 | Plant response rating, Groundsel ([17]; 16 g ai/ha, scale 0 to 100): 100
